“And” between values parts separate entries of the source, which are not always exact repeats. Equal values may be shown once.
How the values were obtained:
Type in all cases: functional
[1] = Antifungal activity against Bipolaris oryzae was measured as mycelial growth at 0.1 mg/mL concentration
[2] = Antifungal activity against Bipolaris oryzae was measured as mycelial growth at 0.5 mg/mL concentration
[3] = system: Curvularia lunata; assay: Antifungal activity against Curvularia lunata was measured as mycelial growth at 0.1 mg/mL concentration
[4] = system: Curvularia lunata; assay: Antifungal activity against Curvularia lunata was measured as mycelial growth at 0.5 mg/mL concentration
[5] = system: Fusarium oxysporum; assay: Antifungal activity against Fusarium oxysporum was measured as mycelial growth at 0.1 mg/mL concentration
[6] = Antibacterial activity against Escherichia coli was measured as area of inhibition zone at 0.1 mg/mL concentration
[7] = system: Enterococcus faecalis; assay: Antibacterial activity against […] was measured as area of inhibition zone at 0.1 mg/mL concentration
[8] = system: Staphylococcus aureus; assay: Antibacterial activity against Staphylococcus aureus was measured as area of inhibition zone at 0.1 mg/mL concentration
[9] = system: Pseudomonas aeruginosa; assay: Antibacterial activity against Pseudomonas aeruginosa was measured as area of inhibition zone at 0.1 mg/mL concentration; conditions: Pseudomonas aeruginosa
[10] = system: Fusarium oxysporum; assay: Antifungal activity against Fusarium oxysporum was measured as mycelial growth at 0.5 mg/mL concentration
[11] = system: Thanatephorus cucumeris; assay: Antifungal activity against Rhizoctonia solani was measured as mycelial growth at 0.1 mg/mL concentration
[12] = system: Thanatephorus cucumeris; assay: Antifungal activity against Rhizoctonia solani was measured as mycelial growth at 0.5 mg/mL concentration
[13] = system: Alternaria alternata; assay: Antifungal activity against Alternaria alternata was measured as mycelial growth at 0.1 mg/mL concentration
[14] = system: Alternaria alternata; assay: Antifungal activity against Alternaria alternata was measured as mycelial growth at 0.5 mg/mL concentration
[15] = Antifungal activity against Bipolaris oryzae was determined at 0.1 mg/mL concentration
[16] = Antifungal activity against Bipolaris oryzae was determined at 0.5 mg/mL concentration
[17] = system: Curvularia lunata; assay: Antifungal activity against Curvularia lunata was determined at 0.1 mg/mL concentration
[18] = system: Curvularia lunata; assay: Antifungal activity against Curvularia lunata was determined at 0.5 mg/mL concentration
[19] = system: Fusarium oxysporum; assay: Antifungal activity against Fusarium oxysporum was determined at 0.1 mg/mL concentration
[20] = system: Fusarium oxysporum; assay: Antifungal activity against Fusarium oxysporum was determined at 0.5 mg/mL concentration
[21] = system: Thanatephorus cucumeris; assay: Antifungal activity against Rhizoctonia solani was determined at 0.1 mg/mL concentration
[22] = system: Thanatephorus cucumeris; assay: Antifungal activity against Rhizoctonia solani was determined at 0.5 mg/mL concentration
[23] = system: Escherichia coli; assay: Antibacterial activity against Escherichia coli was determined at 0.1 mg/mL concentration
[24] = system: Escherichia coli; assay: Antibacterial activity against Escherichia coli was determined at 0.5 mg/mL concentration
[25] = system: Pseudomonas aeruginosa; assay: Antibacterial activity against Pseudomonas aeruginosa was determined at 0.1 mg/mL concentration
[26] = system: Enterococcus faecalis; assay: Antibacterial activity against […] was determined at 0.1 mg/mL concentration
[27] = system: Enterococcus faecalis; assay: Antibacterial activity against […] was determined at 0.5 mg/mL concentration
[28] = system: Staphylococcus aureus; assay: Antibacterial activity against Staphylococcus aureus was determined at 0.1 mg/mL concentration
[29] = system: Staphylococcus aureus; assay: Antibacterial activity against Staphylococcus aureus was determined at 0.5 mg/mL concentration
[30] = system: Pseudomonas aeruginosa; assay: Antibacterial activity against Pseudomonas aeruginosa was determined at 0.5 mg/mL concentration
[31] = system: Alternaria alternata; assay: Antifungal activity against Alternaria alternata was determined at 0.1 mg/mL concentration
[32] = system: Alternaria alternata; assay: Antifungal activity against Alternaria alternata was determined at 0.5 mg/mL concentration

CCOC(=O)c1cn(-c2ccc([N+](=O)[O-])cc2[N+](=O)[O-])nc1C
Mycelial growth [1]: 6 cm | Mycelial growth [2]: 4.5 cm | Mycelial growth [3]: 6.5 cm | Mycelial growth [4]: 5.3 cm | Mycelial growth [5]: 6.3 cm | Inhibition Zone [6]: 7.8 cm and 4.6 cm | zone of inhibition at 100 µg/mL ([6]; Escherichia coli): 50 mm | zone of inhibition at 100 µg/mL [7]: 76 mm | Inhibition Zone [8]: 5.3 cm | zone of inhibition at 100 µg/mL ([8]; Staphylococcus aureus): 82 mm | zone of inhibition at 100 µg/mL [9]: 0 mm | Mycelial growth [10]: 5.4 cm | Mycelial growth [11]: 9 cm | Mycelial growth [12]: 8 cm | Mycelial growth [13]: 5.5 cm | Mycelial growth [14]: 4.8 cm | inhibition at 100 µg/mL [15]: 33.3% | inhibition at 500 µg/mL [16]: 5% | inhibition at 100 µg/mL [17]: 27.8% | inhibition at 500 µg/mL [18]: 41.1% | inhibition at 100 µg/mL [19]: 30% | inhibition at 500 µg/mL [20]: 40% | inhibition at 100 µg/mL [21]: 0% | inhibition at 500 µg/mL [22]: 11.1% | inhibition at 100 µg/mL [23]: 51.1% | inhibition at 500 µg/mL [24]: 86.7% | inhibition at 100 µg/mL [25]: 0% | inhibition at 100 µg/mL [26]: 55.6% | inhibition at 500 µg/mL [27]: 84.4% | inhibition at 100 µg/mL [28]: 58.9% | inhibition at 500 µg/mL [29]: 91.1% | inhibition at 500 µg/mL [30]: 0% | inhibition at 100 µg/mL [31]: 38.9% | inhibition at 500 µg/mL [32]: 46.7%

From ChEMBL document CHEMBL1137069, “Design, synthesis and anti-microbial activity of 1H-pyrazole carboxylates” (2004)
